# Test results published in US4713376A, “Dementia-improving and therapeutic agents” (Toyama Chemical Co., Ltd., priority 1985, dated 1987).
# Experiments:
# [1] = format: physicochemical; settings: 10 days, relative humidity 55%; for Appearance: room temperature (30° C.); for Decomposition percentage: hydroxylamine method, 30° C.
# Description: (§1) Next, among the present compounds [I], α-acetoxy-α-methylaceticacid trimethylammonioethyl ester toluene-4-sulfonate (hereinafter referred to as ALT) and bis(α-acetoxy-α-methylacetic acid trimethylammonioethyl ester) naphthalene-1,5-disulfonate (general name: aclatonium napadisilate) were […] for mouse acute toxicity by intraperitoneal injection as well as for hygroscopicity and stability.
# (§2) Stored for 10 days at room temperature (30° C.) at a relative
# *2 Measured in accordance with the hydroxylamine method for ester (Jikken
# Kagaku Koza, Vol. 24 Seibutsu Kagaku II, p 253 to 255, Maruzen).
# Decomposition percentage (%) = [1 - (absorbance of test
# sample)/(absorbance of standard solution)] × 100
# [2] = Hygroscopicity on storage; format: physicochemical; settings: (Increased weight)/(Original weight) × 100; 10 days, 30° C., relative humidity 55%
# Description: as §1, §2
# *1 Hygroscopicity (%) = (Increased weight)/(Original weight) × 100
# [3] = Mouse acute toxicity by intraperitoneal injection; settings: in vivo, ip
# Text: as §1
# [4] = system: senile dementia of Alzheimer's type; test: Clinical cases, overall improvement degree and neuropsychiatric symptoms, senile dementia of Alzheimer's type; format: in vivo, patients
# Description: (§3) The degree of dementia was diagnosed in patients on the basis of DSM-III criteria with reference to the neuropsychiatric symptoms and findings of the CT scan of the head regions.
# (§4) The overall improvement degree of the present drug was evaluated from the neuropsychiatric symptoms, scores of activity of daily living and Hasegawa's rating scales.
# Case three senile dementia of Alzheimer's type (Overall severity: Marked high degree)
# They began to have a forgetfulness from approx. 4 years ago, and became spiritless and became unable to work, and became not to express their feeling, and had wanderling impulsion. The cerebral atrophy was generally noted by the finding of CT scan of head regions at the admission.
# Case four senile dementia of Alzheimer's type (Overall severity: Marked high degree)
# They had occasionally a forgetfulness from approx. 10 years ago, and became unable to do agricultural work from approx. 4 years ago. The diffuse cerebral atrophy was noted by the finding of CT scan of head regions at the admission.
# Case five senile dementia of Alzheimer's type (Overall severity: Moderate degree)
# They began to have a forgetfulness from approx. 2 years ago, and became unable to do household affairs from 1 year ago, and became unable to distinguish their familial faces. The cerebral atrophy and enlargement of cerebral ventricle were noted by the finding of CT scan of head regions at the admission. The treatment was changed to the administration of 300 mg/day of the present drug because the efficacy was ineffective with other cerebral metabolic improvement drugs and cerebral-vasodilators.
# Case one senile dementia of Alzheimer's type (overall severity: Moderate degree)
# They began to have a forgetfulness and spiritlessness after operation of fracture of neck of femur from 10 years ago. The disorientation was strongly noted from 2-3 years ago. The cerebral atrophy and enlargement of cerebral ventricle were noted by the finding of CT scan of head regions at the admission. The efficacy was ineffective with other various drugs than the present drug.
# patients = test: Side effects in the clinical cases; format: in vivo; settings: all of the above clinical cases
# Alzheimer's disease = test: Clinical case, overall improvement degree and neuropsychiatric symptoms, Alzheimer's disease; format: in vivo, patients
# Description: as §3, §4
# Case two a person, Alzheimer's disease (Overall severity: Moderate degree)
# They became occasionally aware of slight change of character from 8 years ago, and they lived without specific changes, but they became spiritless and not to express their feeling from 3 years ago. At the admission, they could not work entirely and was spiritless, and had contact disturbance with other patients, and decrease of memory power and judgement power were noted. […] The atrophy of anterior lobe was remarkably noted at the finding of CT scan of head regions at the admission.
# dementia = test: Neuropsychiatric symptoms accompanying dementia and cognitive function, summary of clinical cases; format: in vivo, patients
# Description: as §3, §4
# [5] = Transference into brain and stimulation of cerebral metabolism; settings: in vivo
smiles,measurement,setting,value
"CC(=O)OC(C)C(=O)OCC[N+](C)(C)C.Cc1ccc(S(=O)(=O)[O-])cc1 (stereo not drawn) [ALT, α-acetoxy-α-methylaceticacid trimethylammonioethyl ester toluene-4-sulfonate]",Appearance,[1],No change
same,Decomposition percentage,[1],0.5%
same,Hygroscopicity,[2],0.6%
same,LD50,[3],657 mg/kg
"CC(=O)OC(C)C(=O)OCC[N+](C)(C)C (stereo not drawn) [Aclatonium napadisilate, bis(α-acetoxy-α-methylacetic acid trimethylammonioethyl ester) naphthalene-1,5-disulfonate]",neuropsychiatric symptoms and activity of daily living,"[4]; Clinical Case 1, 300 mg/day, 2nd week","they could gait to outside of room at the 2nd week, and their movement behavior was improved, and spontaneousness increased and feeling became clear"
same,overall improvement degree,"[4]; Clinical Case 1, Marked high degree, 300 mg/day",improvement
same,"neuropsychiatric symptoms (spontaneousness, conversation)",[4]; Clinical Case 2,"spontaneousness increased, and conversation with other patients increased, and they had favorable communication and became fortunate"
same,overall improvement degree,"[4]; Clinical Case 2, Marked high degree",slight improvement
same,decrease of spontaneousness and disturbance of emotion,"[4]; Clinical Case 3, 300 mg/day",improved
same,intellectual function,"[4]; Clinical Case 3, 300 mg/day",No changes
same,activity of daily living and expression,"[4]; Clinical Case 3, 300 mg/day, approx. 2nd week after administration","they became able to sit and gait, and eat food by themself and expression became clear"
same,overall improvement degree,"[4]; Clinical Case 3, Moderate degree, 300 mg/day",slight improvement
same,conversation frequency and activity of daily living,"[4]; Clinical Case 4, 300 mg/day, from the 2nd week",their conversation frequency with other patients increased and they became able to go out from their room and occasionally go to toilet
same,overall improvement degree,"[4]; Clinical Case 4, Moderate degree, 300 mg/day",slight improvement
same,side effect,patients,no side effect
same,defecation,Alzheimer's disease; Clinical Case 5,defecation became smooth
same,movement frequency and spontaneousness,"Alzheimer's disease; Clinical Case 5, 4th week",increase of movement frequency and improvement of decrease of spontaneousness
same,overall improvement degree,"Alzheimer's disease; Clinical Case 5, Moderate degree",improvement
same,Appearance,[1],No change
same,Decomposition percentage,[1],0.2%
same,effect on cognitive function,dementia; clinical cases,has not been confirmed at this time
same,improvement of neuropsychiatric symptoms accompanying dementia,dementia; clinical cases,effective
same,clinical effect,"dementia; human, in vivo",confirmed
same,effect on severe dementia,"dementia; human, in vivo",confirmed
same,Hygroscopicity,[2],0.1%
same,LD50,[3],636 mg/kg
same,cerebral metabolism,[5],stimulated
same,transference into brain,[5],found
